One experiment has as its system glycosidases. Briefly: Glycosidase inhibition analysis, panel of glycosidases. Format: biochemical. How it is done: (§1) Inhibition analyses were performed at 37° C. in 0.1 M HEPES buffer, pH=6.8, except for α-fucosidase (assayed at 37° C. in 50 mM sodium acetate buffer, pH 6.0). The amount of enzyme added in each assay was 0.05 units (0.1 units for β-galactosidase and α-fucosidase). […] Data were collected and fitted to a Michaelis-Menten curve by using the program HyperCleland for enzyme kinetics analysis (Cleland, W. W. Methods Enzymol. 1979, 63, 103).

The target in a further experiment is T1, HIV protease (Human immunodeficiency virus type 1 group M subtype B, UniProt P03369).
T1 construct: a backbone engineered HIV-1 protease was prepared by total synthesis; made in house; host or cells: total chemical synthesis (no expression host)
Format: biochemical, HIV-1. How it is done:
For determination of IC50 values for HIV protease, a backbone engineered HIV-1 protease was prepared by total synthesis (Schnolzer et al. Science 1992, 256, 221) 450 nM Final concentration of the protease was added to a solution (152 μL final volume) containing tetrahydroxyazepane (inhibitor), 28 μM fluorogenic peptide substrate (Abz-Thr-Ile-Phe-(p-NO2)-Gln-Arg-NH2) (Tith et al. Int. J. Peptide Protein Res. 1990, 36, 544; Slee, et al. J. Am. Chem. Soc. 1995, 117, 11867) and 1.8% dimethyl sulfoxide in assay buffer: 100 mM MES buffer containing 0.5 mg/mL BSA (bovine serum album) at pH 5.5. A Km of 37±8 μM was reported for the synthetic HIV protease against the above fluorogenic substrate. The solution was mixed and incubated over 5 minutes at 37° C. during which time the rate of substrate cleavage was monitored by continuously recording the change in fluorescence of the assay solution. An excitation filter of 325 nm and an emission filter of 420 nm were used. For each inhibitor concentration, three measurements were carried out.

For experiment [1], the target named is β-N-acetylglucosaminidase. In words: Glycosidase inhibition analysis, β-N-acetylglucosaminidase. Type of experiment: biochemical. The settings on record: read-out: Ki as inhibitor of β-N-acetylglucosaminidase. As for the experimental part: as §1
Experiment [2] addresses β-galactosidase. In words: Glycosidase inhibition analysis, β-galactosidase. The settings on record: read-out: Ki as inhibitor of β-galactosidase. Format: biochemical. How it is done: as §1
The target of experiment [3] is β-N-acetylglucosaminidase. The settings on record: literature value (Wong et al. 1995); read-out: Ki as inhibitor of β-N-acetylglucosaminidase; cited from earlier work.
The target in the next experiment is T2, FIV protease (Feline immunodeficiency virus, UniProt P16088).
T2 construct: enzymatic activity of recombinantly derived FIV protease; made in house
In words: FIV protease inhibition, fluorogenic peptide substrate. Type of experiment: biochemical. How it is done: The inhibitory effects of compounds 60a, 60b, 64a, 64b, 65a, and 65b on the enzymatic activity of recombinantly derived FIV protease (Slee et al. J. Am. Chem. Soc. 1995, 117, 11867) were studied using a fluorogenic assay based on the enzymatic cleavage of a novel peptide based substrate [Arg-Ala-Leu-Thr-Lys(aminobenzyl)-[…]. Inhibition studies were carried out at a single substrate concentration (20 μM) in a 50 mM sodium citrate/100 mM sodium phosphate buffer (pH 5.3) containing 2% DMSO and 1M sodium chloride. The same wavelengths were used for detections. […] IC50 values were determined by least squares analysis of Dixon Plots (Dixon, M. J. Biochem. 1953, 55, 170).

In experiment [4] the target is β-galactosidase. The settings on record: read-out: Ki as inhibitor of β-galactosidase; literature value (Bernotas et al. 1987); cited from earlier work.
Another experiment has as its target T3, α-fucosidase (Bos taurus, UniProt Q2KIM0).
T3 sequence (Q2KIM0 23-468): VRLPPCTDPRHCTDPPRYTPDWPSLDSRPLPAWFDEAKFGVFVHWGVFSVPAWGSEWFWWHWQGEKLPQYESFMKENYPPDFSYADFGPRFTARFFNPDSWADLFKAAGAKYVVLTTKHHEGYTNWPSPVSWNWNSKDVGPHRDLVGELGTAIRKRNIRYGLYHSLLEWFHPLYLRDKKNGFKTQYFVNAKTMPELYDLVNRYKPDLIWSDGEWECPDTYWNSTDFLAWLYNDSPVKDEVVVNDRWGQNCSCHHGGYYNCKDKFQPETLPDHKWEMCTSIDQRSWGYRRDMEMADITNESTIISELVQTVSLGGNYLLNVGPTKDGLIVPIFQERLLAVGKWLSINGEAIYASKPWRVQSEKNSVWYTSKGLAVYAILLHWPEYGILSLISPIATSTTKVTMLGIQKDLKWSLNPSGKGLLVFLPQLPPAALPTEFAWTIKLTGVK
The settings on record: literature value (Fleet et al. 1985); read-out: Ki as inhibitor of α-fucosidase; cited from earlier work.

One may read the Ki as the equilibrium dissociation constant of an inhibitor or competing ligand from its target.

“Also recorded” adds a separate entry of the source. Read-outs that look alike come from different tables or passages of the source.

For the molecule `CN1C[C@H](OCc2cc(F)cc(F)c2)[C@H](O)[C@@H](O)[C@@H](OCc2cc(F)cc(F)c2)C1` [Compound 64b, (3S,4R,5R,6S)-3,6-di-O-(3′,5′-difluorobenzyl)-N-methyl-3,4,5,6-tetrahydroxyazepane], the “inhibition of the glycosidases (in words)” value with glycosidases was “not inhibitors”. In addition, the “inhibition of the HIV protease (in words)” value on HIV protease is listed as “inhibit”.

On to `OC1CNCC(O)C(O)C1O` [Compound 3, (3R,4R,5R,6R)-tetrahydroxyazepane], for which the Ki in experiment [1] is 4.6 µM. Besides, the “inhibition of the HIV protease (in words)” value against HIV protease is listed as “not inhibitors; also recorded: did not show inhibitory activities”.

In the case of `CO[C@@H]1CN[C@H](CO)[C@@H](O)[C@H]1O` [Compound 28, 2-O-methyl-1-deoxy-D-mannojirimycin], in the experiment with glycosidases, the “inhibition of the glycosidases (in words)” value was “None of these two azasugars exhibited significant inhibition”.

As for `O[C@H]1[C@H](O)[C@@H](O)CN(Cc2ccccc2)C[C@@H]1O` [Compound 8, (3S,4R,5R,6S)-N-Benzyl-3,4,5,6-tetrahydroxyazepane], the “inhibition of the glycosidases (in words)” value in the experiment with glycosidases is given as “does not improve inhibition activity except in the case of α-fucosidase”. The “inhibition of the HIV protease (in words)” value on HIV protease is recorded as “not inhibitors”.

With `C[N+]1([O-])C[C@H](OCc2cccc(F)c2)[C@H](O)[C@@H](O)[C@@H](OCc2cccc(F)c2)C1` (stereo partly drawn) [Compound 65a, (3S,4R,5R,6S)-3,6-di-O-(3′-Fluorobenzyl)-N-methyl-3,4,5,6-tetrahydroxyazepane N-oxide], the “inhibition of the glycosidases (in words)” value in the experiment on glycosidases is recorded as “not inhibitors”. Further, the “inhibition of the HIV protease (in words)” value against HIV protease is listed as “inhibit”.

`O[C@H]1[C@H](O)[C@H](O)CN(Cc2ccccc2)C[C@H]1O` [Compound 7, (3R,4R,5R,6R)-N-Benzyl-3,4,5,6-tetrahydroxyazepane]: in the experiment with glycosidases, the “inhibition of the glycosidases (in words)” value is given as “does not improve inhibition activity except in the case of α-fucosidase”. For the same molecule, the “inhibition of the HIV protease (in words)” value on HIV protease is reported as “not inhibitors”.

Turning to `O[C@H]1[C@H](O)[C@@H](O)CNC[C@@H]1O` [Compound 6, (3S,4R,5R,6S)-3,4,5,6-Tetrahydroxyazepane], the “inhibition of the glycosidases (in words)” value with glycosidases is reported as “inhibits all glycosidases”. Also, the Ki at β-galactosidase [2] worked out at 6.5 µM. For the same molecule, the “inhibition of the HIV protease (in words)” value on HIV protease is reported as “not inhibitors; also recorded: did not show inhibitory activities”.

Turning to `CC(=O)N1C[C@H](O)[C@@H](O)[C@H](O)[C@H]1CO` [1-deoxy-N-acetylglucojirimycin], the Ki in experiment [3] is 9.8 µM.

For the molecule `O[C@@H]1[C@@H](O)[C@@H](OCc2cc(F)cc(F)c2)CNC[C@@H]1OCc1cc(F)cc(F)c1` [Compound 60b, (3S,4R,5R,6S)-3,6-di-O-(3′,5′-difluorobenzyl)-3,4,5,6-tetrahydroxyazepane], on FIV protease, the “IC50 against FIV protease” value is given as “inceased compared to their inhibitory activity to the HIV protease” and the “inhibition of FIV protease (in words)” value was “active”. Further, the “inhibition of the glycosidases (in words)” value in the experiment on glycosidases is reported as “not inhibitors”. For the same molecule, at HIV protease, the Ki is about 350 µM and the “inhibition of the HIV protease (in words)” value is on record as “inhibit”.

On to `CO[C@H]1CN[C@@H](CO)[C@H](O)[C@@H]1O` [Compound 29, 2-O-methyl-1-deoxy-L-mannojirimycin], for which, in the experiment on glycosidases, the “inhibition of the glycosidases (in words)” value was “None of these two azasugars exhibited significant inhibition”.

Consider `C[N+]1([O-])C[C@H](OCc2cc(F)cc(F)c2)[C@H](O)[C@@H](O)[C@@H](OCc2cc(F)cc(F)c2)C1` (stereo partly drawn) [Compound 65b, (3S,4R,5R,6S)-3,6-di-O-(3′,5′-difluorobenzyl)-N-methyl-3,4,5,6-tetrahydroxyazepane N-oxide], for which the “inhibition of the glycosidases (in words)” value with glycosidases is listed as “not inhibitors”. The “inhibition of the HIV protease (in words)” value at HIV protease is given as “inhibit”.

As for `OC[C@H]1NC[C@H](O)[C@@H](O)[C@H]1O` [1-deoxygalactojirimycin], at β-galactosidase [4], the Ki was over 1000 µM.

Turning to `CN1C[C@H](OCc2cccc(F)c2)[C@H](O)[C@@H](O)[C@@H](OCc2cccc(F)c2)C1` [Compound 64a, (3S,4R,5R,6S)-3,6-di-O-(3′-Fluorobenzyl)-N-methyl-3,4,5,6-tetrahydroxyazepane], in the experiment on glycosidases, the “inhibition of the glycosidases (in words)” value is “not inhibitors”. The “inhibition of the HIV protease (in words)” value against HIV protease is reported as “inhibit”.

Regarding `O[C@@H]1[C@@H](O)[C@@H](OCc2cccc(F)c2)CNC[C@@H]1OCc1cccc(F)c1` [Compound 60a, (3S,4R,5R,6S)-3,6-di-O-(3′-fluorobenzyl)-3,4,5,6-tetrahydroxyazepane], at FIV protease, the “IC50 against FIV protease” value is recorded as “inceased compared to their inhibitory activity to the HIV protease” and the “inhibition of FIV protease (in words)” value is listed as “active”. In addition, the “inhibition of the glycosidases (in words)” value in the experiment with glycosidases is given as “not inhibitors”. In addition, the “inhibition of the HIV protease (in words)” value at HIV protease is recorded as “inhibit”.

For the molecule `C[C@@H]1NC[C@@H](O)[C@H](O)[C@@H]1O` [1-deoxyfucojirimycin], the Ki at α-fucosidase is 0.005 µM.
